Usually melting point stands for the temperature of the solid-liquid transition.

Structures can show the parent of a compound that is named as a salt.

`O=C1Nc2cccc(Cl)c2CN1c1csc(-c2ccncc2)n1` [Example 11, 5-Chloro-3-(2-(4-pyridyl)(1,3-thiazol-4-yl))-1,3,4-trihydroquinazolin-2-one] came in with a melting point of 292 to 293 °C. In turn, `O=C1Nc2cc(CN3CCOCC3)ccc2CN1c1csc(-c2ccncc2)n1` [Example 27, 7-(Morpholin-4-ylmethyl)-3-(2-(4-pyridyl)(1,3-thiazol-4-yl))-1,3,4-trihydroquinazolin-2-one] gave a melting point of 249 to 250 °C. Consider `O=C1Nc2cccc(F)c2CN1c1csc(-c2ccncc2)n1` [Example 13, 5-Fluoro-3-(2-(4-pyridyl)(1,3-thiazol-4-yl))-1,3,4-trihydroquinazolin-2-one], for which the melting point was 247 to 249 °C.

Consider `O=C1Nc2cc(F)c(N3CCCCC3)cc2CN1c1csc(-c2ccncc2)n1` [Example 56, 7-Fluoro-6-piperidyl-3-(2-(4-pyridyl)(1,3-thiazol-4-yl))-1,3,4-trihydroquinazolin-2-one], for which the melting point is 312 to 314 °C.

For `O=C1Nc2cccc(CN3CCCCC3)c2CN1c1csc(-c2ccncc2)n1` (as salt: HCl) [Example 15, 5-(Piperidylmethyl)-3-(2-(4-pyridyl)(1,3-thiazol-4-yl))-1,3,4-trihydroquinazolin-2-one], the melting point lay in the range of 278 to 280 °C.

For `CN1CCC[C@H]1COc1ccc2c(c1)CN(c1nc(-c3ccncc3)ns1)C(=O)N2` [Example 54, 6-[((2S)-1-Methylpyrrolidin-2-yl)methoxy]-3-(3-(4-pyridyl)-(1,2,4-thiadiazol-5-yl))-1,3,4-trihydroquinazolin-2-one], the melting point was greater than 275 °C. `O=C1Nc2cccc(CN3CCOCC3)c2CN1c1csc(-c2ccncc2)n1` (as salt: HCl) [Example 14, 5-(Morpholin-4-ylmethyl)-3-(2-(4-pyridyl)(1,3-thiazol-4-yl))-1,3,4-trihydroquinazolin-2-one] gave a melting point of 261 to 263 °C. Compound `O=C1Nc2cccc(F)c2CN1c1nc(-c2ccncc2)cs1` [Example 45, 5-Fluoro-3-(4-(4-pyridyl)(1,3-thiazol-2-yl))-1,3,4-trihydroquinazolin-2-one] displayed a melting point greater than 300 °C. Compound `O=C1Nc2ccc(N3CCCCC3)cc2CN1c1nc(-c2ccncc2)cs1` [Example 36, 6-Piperidyl-3-(4-(4-pyridyl)(1,3-thiazol-2-yl))-1,3,4-trihydroquinazolin-2-one] had a melting point greater than 272 °C. To `O=C1Nc2ccccc2CN1c1nc(-c2ccncc2)ns1` [Example 46, 3-(3-(4-Pyridyl)-1,2,4-thiadiazol-5-yl)-1,3,4-trihydroquinazolin-2-one] belongs greater than 290 °C; to `O=C1Nc2ccccc2CN1c1nc(-c2ccc(O)cc2)cs1` [Example 49, 3-[4-(4-Hydroxyphenyl)-1,3-thiazol-2-yl]-1,3,4-trihydroquinazolin-2-one], 288 to 291 °C.

The compound `COc1ccc(-c2csc(N3Cc4ccccc4NC3=O)n2)cc1` [Example 48, 3-[4-(4-Methoxyphenyl)-1,3-thiazol-2-yl]-1,3,4-trihydroquinazolin-2-one] displayed a melting point of 275 to 278 °C.

The compound `O=C1Nc2cccc(N3CCOCC3)c2CN1c1nc(-c2ccncc2)ns1` [Example 53, 5-Morpholin-4-yl-3-(3-(4-pyridyl)(1,2,4-thiadiazol-5-yl))-1,3,4-trihydroquinazolin-2-one] had a melting point greater than 300 °C. Take `O=C1Nc2cccc(OCCN3CCOCC3)c2CN1c1nc(-c2ccncc2)ns1` (as salt: salt) [Example 51, 5-(2-Morpholin-4-ylethoxy)-3-(3-(4-pyridyl)(1,2,4-thiadiazol-5-yl))-1,3,4-trihydroquinazolin-2-one]: the melting point is 259 to 260 °C. Compound `O=C1Nc2ccccc2CN1c1nc(-c2ccc(Cl)c(Cl)c2)cs1` [Example 44, 3-[4-(3,4-Dichlorophenyl)-1,3-thiazol-2-yl]-1,3,4-trihydroquinazolin-2-one] showed a melting point of 295 to 299 °C. The compound `O=C1Nc2cc(-c3ccccc3)ccc2CN1c1csc(-c2ccncc2)n1` [Example 12, 7-Phenyl-3-(2-(4-pyridyl)(1,3-thiazol-4-yl))-1,3,4-trihydroquinazolin-2-one] displayed a melting point of 248 to 250 °C. Take `Cc1ccc2c(c1)CN(c1csc(-c3ccncc3)n1)C(=O)N2` [Example 7, 6-Methyl-3-(2-(4-pyridyl)(1,3-thiazol-4-yl))-1,3,4-trihydroquinazolin-2-one]: the melting point lay in the range of 259 to 261 °C. The compound `COc1cccc(-c2ccc3c(c2)NC(=O)N(c2csc(-c4ccncc4)n2)C3)c1` [Example 30, 7-(3-Methoxyphenyl)-3-(2-(4-pyridyl)(1,3-thiazol-4-yl))-1,3,4-trihydroquinazolin-2-one] registered a melting point of 256 to 258 °C. For `O=C1Nc2ccccc2CN1c1nc(-c2ccc(F)c(F)c2)cs1` [Example 39, 3-[4-(3,4-Difluorophenyl)-1,3-thiazol-2-yl]-1,3,4-trihydroquinazolin-2-one] the value was 289 to 293 °C; for `O=C1Nc2cc(F)ccc2CN1c1csc(-c2ccncc2)n1` [Example 9, 7-Fluoro-3-(2-(4-pyridyl)(1,3-thiazol-4-yl))-1,3,4-trihydroquinazolin-2-one], 285 to 286 °C.

The compound `COc1cccc(-c2cccc3c2CN(c2csc(-c4ccncc4)n2)C(=O)N3)c1` [Example 57, 5-(3-Methoxyphenyl)-3-(2-(4-pyridyl)(1,3-thiazol-4-yl))-1,3,4-trihydroquinazolin-2-one] came in with a melting point of 250 to 252 °C. To `O=C1Nc2ccccc2CN1c1nc(-c2cccnc2)cs1` [Example 18, 3-(4-(3-Pyridyl)-1,3-thiazol-2-yl)-1,3,4-trihydroquinazolin-2-one] belongs 269 to 272 °C.

The compound `O=C1Nc2ccccc2CN1c1ccc(-c2ccncc2)s1` [Example 47, 3-(5-(4-Pyridyl)-2-thienyl)-1,3,4-trihydroquinazolin-2-one] yielded a melting point of 301 to 305 °C. Compound `CN1CCC[C@H]1COc1cccc2c1CN(c1nc(-c3ccncc3)ns1)C(=O)N2` [Example 55, 5-[((2S)-1-Methylpyrrolidin-2-yl)methoxy]-3-(3-(4-pyridyl)-(1,2,4-thiadiazol-5-yl))-1,3,4-trihydroquinazolin-2-one] registered a melting point greater than 250 °C. For `O=C1Nc2cccc(Cl)c2CN1c1nc(-c2ccncc2)cs1` [Example 43, 5-Chloro-3-(4-(4-pyridyl)(1,3-thiazol-2-yl))-1,3,4-trihydroquinazolin-2-one] the value was greater than 300 °C; for `CN(C)CCN(C)c1ccc2c(c1)CN(c1nc(-c3ccncc3)cs1)C(=O)N2` [Example 37, 6-{[2-(Dimethylamino)ethyl](methyl)amino}-3-(4-(4-pyridyl)(1,3-thiazol-2-yl))-1,3,4-trihydroquinazolin-2-one], 254 to 257 °C; for `O=C1Nc2ccc(F)cc2CN1c1csc(-c2ccncc2)n1` [Example 10, 6-Fluoro-3-(2-(4-pyridyl)(1,3-thiazol-4-yl))-1,3,4-trihydroquinazolin-2-one], 290 to 291 °C. In turn, `O=C1Nc2cccc(CN3CCCCCC3)c2CN1c1csc(-c2ccncc2)n1` [Example 29, 5-(Azaperhydroepinylmethyl)-3-(2-(4-pyridyl)(1,3-thiazol-4-yl))-1,3,4-trihydroquinazolin-2-one] gave a melting point of 202 to 204 °C.

Regarding `Cc1ccc(Oc2ccc3c(c2)CN(c2nc(-c4ccncc4)cs2)C(=O)N3)c(C)c1` [Example 40, 6-(2,4-Dimethylphenoxy)-3-(4-(4-pyridyl)(1,3-thiazol-2-yl))-1,3,4-trihydroquinazolin-2-one], the melting point lay in the range of 254 to 258 °C. To `O=C1Nc2cc(C(F)(F)F)ccc2CN1c1nc(-c2ccncc2)ns1` [Example 52, 3-(3-(4-Pyridyl)(1,2,4-thiadiazol-5-yl))-7-(trifluoromethyl)-1,3,4-trihydroquinazolin-2-one] belongs greater than 300 °C; to `O=C1Nc2ccccc2CN1c1nc(-c2ccccn2)cs1` [Example 17, 3-(4-(2-Pyridyl)-1,3-thiazol-2-yl)-1,3,4-trihydroquinazolin-2-one], greater than 275 °C. The compound `CCc1cc(-c2nc(N3Cc4ccccc4NC3=O)cs2)ccn1` [Example 35, 3-[2-(2-Ethyl-4-pyridyl)-1,3-thiazol-4-yl]-1,3,4-trihydroquinazolin-2-one] gave a melting point of 239 to 240 °C. The compound `O=C1Nc2cccc(Br)c2CN1c1csc(-c2ccncc2)n1` [Example 6, 5-Bromo-3-(2-(4-pyridyl)(1,3-thiazol-4-yl))-1,3,4-trihydroquinazolin-2-one] yielded a melting point of 283 to 284 °C. For `CN1CCN(c2ccc3c(c2)CN(c2nc(-c4ccncc4)cs2)C(=O)N3)CC1` [Example 38, 6-(4-Methylpiperazinyl)-3-(4-(4-pyridyl)(1,3-thiazol-2-yl))-1,3,4-trihydroquinazolin-2-one] the value was 301 to 304 °C; for `COc1ccc(-c2csc(N3Cc4ccccc4NC3=O)n2)c(OC)c1` [Example 41, 3-[4-(2,4-Dimethoxyphenyl)-1,3-thiazol-2-yl]-1,3,4-trihydroquinazolin-2-one], 283 to 288 °C; for `O=C1Nc2ccccc2CN1c1nc(-c2ccncc2)cs1` [Example 16, 3-(4-(4-Pyridyl)-1,3-thiazol-2-yl)-1,3,4-trihydroquinazolin-2-one], greater than 267 °C.

Source of the values: US7119111B2, “2-oxo-1,3,4-trihydroquinazolinyl derivatives and methods of use” (Amgen, Inc., priority 2002, dated 2006).
